Values quoted from earlier work in patent US8927002B2, “Stent with a coating or a basic body containing a lithium salt and use of lithium salts for prevention of restenosis” (Biotronik VI Patent AG, priority 2008, dated 2015).

Assays:
[1] = test system: various prostate cancer cell lines; settings: cell culture; by reducing gene expression in the S-phase of the cell cycle
[2] = test system: interleukins (IL-15; IL-8)

## [Cl-].[Li+] [lithium chloride]
[1]
  proliferation of various prostate cancer cell lines: significantly suppresses the proliferation
[2]
  secretion of certain interleukins (IL-15; IL-8): increased secretion
